Data set [1] has as its system human blood plasma. Briefly: Clot formation and fibrinolysis (CFF) assay. The class given is biochemical. The settings on record: for Amax (maximum of fibrin clot absorbance at 360 nm) / VmaxC (of Fibrin Polymerization) / VmaxF (of Fibrin Clot Lysis): control plasma assumed as 100%, mean ± SD, n = 5–7; for decrease of VmaxF: concentration not given. From the text:
The CFF assay enables analysis of both the blood plasma coagulation process and fibrinolysis efficiency. The thrombin enzyme in the reagent mixture initiates blood plasma fibrinogen polymerization, leading to an increase in absorbance in the sample until the maximal absorbance (Amax) is attained. The fibrinolytic activity of blood plasma is induced by the tissue-type plasminogen activator (t-PA). The activation of fibrinolysis in the tested samples leads to fibrin clot degradation and decreases the absorbance to the baseline.
Figure 11 An exemplary curve of blood plasma coagulation and clot lysis recorded during the clot formation and fibrinolysis (CFF) assay. The first step in the CFF test involves activation of the blood plasma coagulation cascade and fibrin clot formation (1). It is characterized by the maximal velocity of the fibrin polymerization parameter (VmaxC). The maximal absorbance (Amax) peak corresponds to the fibrin stabilization phase and is an indicator of fibrin clot thickness (2). The third step of the CFF assay covers the activation of fibrinolytic mechanisms and fibrin clot degradation (3) and is described by the maximal velocity of clot lysis (VmaxF).
Thrombin was purchased from BioMed (Lublin, Poland). A tissue-type plasminogen activator (Actilyse®) was purchased from Boehringer Ingelheim, Ingelheim am Rhein, Germany. Kinetic measurements were executed using a SpectrostarNano microplate spectrophotometer (BMG LabTech, Ortenberg, Germany).
Measurements were performed using a kinetic model, as described in our previous work. Briefly, blood plasma was preincubated with the examined substances (at final concentrations of 10, 25, and 50 mg/L) for 15 min at 37 °C. Then, 100 μL of blood plasma was added to microtiter plate wells, which was followed by 200 μL of the reagent mixture (0.75 U/mL thrombin, 225 ng/mL t-PA and 7.5 mM CaCl2) suspended in tris-buffered saline (0.05 M TBS, 0.9% NaCl; pH 7.4). Measurements of absorbance changes were started immediately and continued for 60 min at 37 °C, λ = 360 nm. The following parameters were used to determine the effects of the examined substances on the coagulation and fibrinolytic properties of the blood plasma: the maximal velocity of fibrinogen polymerization (VmaxC), which is an indicator of the plasma coagulation efficiency; the maximal absorbance (Amax), which is an indicator of the fibrin clot stabilization and its thickness; the maximal velocity of clot lysis (VmaxF), which is an indicator of blood plasma fibrinolytic activity.

For data set [2], the system named is human blood plasma. Briefly: Thrombin time (TT) clotting assay. Type of data set: biochemical. The protocol:
(§1) Human blood plasma was isolated from fresh buffy coats (collected onto the citrate-dextrose solution—ACD) purchased from the Regional Centre of Blood Donation and Blood Treatment in Lodz, Poland. In the isolation procedure, the buffy coats (60 mL units) were divided into volumes of 10 mL and centrifuged (4000 rpm/15 min) in 15 mL tubes. Next, 1 mL solutions of each amide 1–8 were prepared in distilled water at concentrations of 10, 25, and 50 mg/L. Then, 450 μL of plasma and 50 μL of each amide at the tested concentrations were placed into 1.5 mL vials. The vials were vortexed (Vortex Biosan V-1 plus), incubated at 37 °C on a thermoblock (Dry Block Thermostat Biosan TDB-120), and analyzed using a Kselmed K-3002 OPTIC coagulometer (Grudziądz, Poland), based on the manufacturer’s protocols (described below). The control sample was native blood plasma, untreated with any of the examined substances.
Both 100 μL of control plasma and plasma samples treated with the amides were transferred to measuring cuvettes, which were placed in the thermoblock module (37 °C) of the coagulometer (KSELMED K-3002 Optic). Then, 100 μL of thrombin solution (4.5 U/mL, in 0.9% NaCl; Biomed, Lublin, Poland) was added to the cuvette. Measurements were started immediately.

For data set [3], the system named is human blood plasma. Briefly: Prothrombin time (PT) clotting assay. The class given is biochemical. The protocol:
as §1
Fifty microliters of control plasma and plasma samples treated with the amides were transferred to measuring cuvettes and placed in the thermoblock module (37 °C) of a coagulometer (KSELMED, K-3002 Optic). Then, 100 μL of Dia-PT reagent (DIAGON Kft. Hungary; cat. no. 81100) was added. Measurements were started immediately.

For data set [4], the system named is human blood plasma. Description: Activated partial thromboplastin time (aPTT) clotting assay. Type of data set: biochemical. The procedure: as §1
Fifty microliters of control plasma and plasma samples treated with the amides were transferred to measuring cuvettes and placed in the thermoblock module (37 °C) of the coagulometer (KSELMED, K-3002 Optic). Then, 50 μL of Dia-APTT reagent (DIAGON Kft. Hungary; cat. no. 72048) was added. The mixture was incubated for 180 s at 37 °C. Finally, 50 μL of reagent Dia-CaCl2 (DIAGON Kft. Hungary; cat. no. 41192) was added. Measurements were started immediately.

Data set [5] is described as follows: Hemolysis assay (stability of erythrocytes). Type of data set: cell-based, human. The settings on record: male, human, heparinized whole blood diluted with saline (erythrocytes); for hemolysis at 45 min, 5 mg/L / hemolysis at 120 min, 5 mg/L / hemolysis at 240 min, 5 mg/L: c 5 mg/L. The protocol:
Heparinized whole blood was used from a healthy volunteer. The whole blood (10 mL) was diluted with saline solution (90 mL). For each UV-Vis measurement, 2.5 mL of diluted blood was used. For each blood sample, 1 mL of a saline solution containing hydrochlorides 1–8 at concentrations of 5, 50, and 500 mg/L was added. As a control were used blood samples with the addition of 1% solution of DMSO in saline and 1% solution of SDS in saline. In all cases, the measurements were repeated twice for each concentration. […] The cells were centrifuged, and the absorbance of the supernatant, which contained plasma and lysed erythrocytes, was measured at 540 nm. The percentage of lysis was calculated from a standard curve of lysed erythrocytes treated with SDS [52].

Counter-ions that a name gives are not always drawn.

Turning to `NCCCCCC(=O)NCC1CCC(C(=O)O)CC1` (stereo not shown) (as salt: hydrochloride) [Amide 3, 6-((((1s,4s)-4-Carboxycyclohexyl)methyl)amino)-6-oxohexan-1-aminium chloride], the melting point lay within 195 to 197 °C.
With `NCC(=O)NCC1CCC(C(=O)O)CC1` (stereo not shown) (as salt: hydrochloride) [Amide 7, 2-((((1s,4s)-4-Carboxycyclohexyl)methyl)amino)-2-oxoethanaminium chloride], the melting point fell in the range of 221 to 224 °C.
With `Cl.NCCCCCC(=O)NCCCCCC(=O)O` [Amide 4, 6-(6-Aminohexanamido)hexanoic acid hydrochloride], the “Amax (maximum of fibrin clot absorbance at 360 nm)” value with human blood plasma [1] (10 mg/L) worked out at 115.37 ± 8.73 %; with human blood plasma [1] (25 mg/L), 114.07 ± 15.71%; with human blood plasma [1] (50 mg/L) it was 109.29 ± 9.02 %. Also, the “VmaxC (of Fibrin Polymerization)” value was found to be 107.93 ± 7.23 % in the data set with human blood plasma [1] (10 mg/L), 105.85 ± 7.85% in the data set with human blood plasma [1] (25 mg/L) and 105.89 ± 5.64% in the data set with human blood plasma [1] (50 mg/L). In addition, the figures for the “VmaxF (of Fibrin Clot Lysis)” value in the data set on human blood plasma [1] (10 mg/L), in the data set on human blood plasma [1] (25 mg/L) and in the data set with human blood plasma [1] (50 mg/L) were 81.36 ± 21.07 %, 70.35 ± 16.30 % and 55.95 ± 10.51 %, respectively. For the same compound, in the data set on human blood plasma [1], the “decrease of VmaxF” value is 30–40%. For the same compound, the “TT Time [% of Control]” value in the data set on human blood plasma [2] (c 10 mg/L) is recorded as 96.3 ± 6.9 % of Control; with human blood plasma [2] (c 25 mg/L) it was 95.5 ± 8.8 % of Control; in the data set with human blood plasma [2] (c 50 mg/L), 97.6 ± 5.0 % of Control. Further, the “PT Time [% of Control]” value with human blood plasma [3] (c 10 mg/L) is listed as 97.3 ± 4.2 % of Control; in the data set on human blood plasma [3] (c 25 mg/L) it was 95.4 ± 2.3 % of Control; in the data set with human blood plasma [3] (c 50 mg/L), 93.7 ± 3.0 % of Control. Further, in the data set with human blood plasma [3] (two higher concentrations (25 and 50 mg/L)), the “prothrombin time, effect versus control in words” value is reported as “significantly decreased”. The “aPTT Time [% of Control]” value in the data set with human blood plasma [4] (c 10 mg/L) is recorded as 98.1 ± 5.2 % of Control; in the data set on human blood plasma [4] (c 25 mg/L), 97.4 ± 5.4 % of Control; in the data set with human blood plasma [4] (c 50 mg/L), 99.9 ± 6.0 % of Control. Moreover, the hemolysis at 45 min, 5 mg/L in data set [5] (45 min) turned out to be 1%. The hemolysis at 120 min, 5 mg/L in data set [5] (120 min) came out at 0.74%. The compound further came in with a hemolysis at 240 min, 5 mg/L in data set [5] (240 min) of 0.27%. Also, the hemolysis at 45 min, 50 mg/L in data set [5] (c 50 mg/L, 45 min) was 0%. Besides, in data set [5] (c 50 mg/L, 120 min), the hemolysis at 120 min, 50 mg/L was 0.71%. Besides, the hemolysis at 240 min, 50 mg/L in data set [5] (c 50 mg/L, 240 min) was determined as 0.32%. Further, the hemolysis at 45 min, 500 mg/L in data set [5] (c 500 mg/L, 45 min) stood at 0.38%. The hemolysis at 120 min, 500 mg/L in data set [5] (c 500 mg/L, 120 min) worked out at 0.21%. This compound also returned a hemolysis at 240 min, 500 mg/L in data set [5] (c 500 mg/L, 240 min) of 0.22%.
Take `NCC(=O)NCC1CCC(C(=O)O)CC1` (stereo not shown) [Amide 7, 2-((((1s,4s)-4-Carboxycyclohexyl)methyl)amino)-2-oxoethanaminium chloride]: the “Amax (maximum of fibrin clot absorbance at 360 nm)” value with human blood plasma [1] (10 mg/L) turned out to be 115.64 ± 11.61 %; in the data set on human blood plasma [1] (25 mg/L), 120.06 ± 25.63 %; in the data set with human blood plasma [1] (50 mg/L), 113.54 ± 13.76 %. The “VmaxC (of Fibrin Polymerization)” value is 106.86 ± 9.49% in the data set with human blood plasma [1] (10 mg/L), 104.39 ± 8.60% in the data set on human blood plasma [1] (25 mg/L) and 111.45 ± 8.07 % in the data set with human blood plasma [1] (50 mg/L). Further, the “VmaxF (of Fibrin Clot Lysis)” value in the data set with human blood plasma [1] (10 mg/L) is reported as 66.18 ± 21.32 %; in the data set on human blood plasma [1] (25 mg/L), 62.99 ± 16.99 %; with human blood plasma [1] (50 mg/L) it was 87.27 ± 8.04%. The “decrease of VmaxF” value with human blood plasma [1] was 30–40%. In the data set on human blood plasma [1] (full range of tested concentrations (10–50 µg/mL)), the “Amax parameter, effect in words” value was “significantly higher”. The entries for the “TT Time [% of Control]” value in the data set with human blood plasma [2] (c 10 mg/L), in the data set on human blood plasma [2] (c 25 mg/L) and in the data set on human blood plasma [2] (c 50 mg/L) were 97.2 ± 3.3 % of Control, 97.5 ± 2.5 % of Control and 96.9 ± 1.7 % of Control, respectively. Further, the results for the “PT Time [% of Control]” value in the data set on human blood plasma [3] (c 10 mg/L), in the data set with human blood plasma [3] (c 25 mg/L) and with human blood plasma [3] (c 50 mg/L) were 95.4 ± 7.4 % of Control, 94.3 ± 9.7 % of Control and 95.3 ± 8.3 % of Control, respectively. Besides, the “aPTT Time [% of Control]” value with human blood plasma [4] (c 10 mg/L) was 98.1 ± 4.6 % of Control; in the data set on human blood plasma [4] (c 25 mg/L) it was 99.3 ± 3.3 % of Control; with human blood plasma [4] (c 50 mg/L), 100.6 ± 4.9 % of Control. This compound displayed a hemolysis at 45 min, 5 mg/L in data set [5] (45 min) of 0%. Also, in data set [5] (120 min), the hemolysis at 120 min, 5 mg/L was 0.21%. For the same compound, the hemolysis at 240 min, 5 mg/L in data set [5] (240 min) was found to be 0.21%. Moreover, the hemolysis at 45 min, 50 mg/L in data set [5] (c 50 mg/L as printed in the third concentration block of amides 7 and 8, 45 min) was found to be 0%; in data set [5] (c 50 mg/L, 45 min), 0.41%. For the same compound, the hemolysis at 120 min, 50 mg/L in data set [5] (c 50 mg/L as printed in the third concentration block of amides 7 and 8, 120 min) is 0.23%; in data set [5] (c 50 mg/L, 120 min), 0.97%. In addition, the hemolysis at 240 min, 50 mg/L in data set [5] (c 50 mg/L as printed in the third concentration block of amides 7 and 8, 240 min) worked out at 0.38%; in data set [5] (c 50 mg/L, 240 min) it was 0.64%. The compound also yielded a hemolysis at 45 min, 500 mg/L in data set [5] (c 500 mg/L, 45 min) of 0%.

One may read the melting point as the temperature of the solid-liquid transition.
